In brackets after ≈: the same amount, converted by molar mass.
What was measured:
[1] = tested on: Caenorhabditis elegans; assay: Growth inhibition of adult Caenorhabditis elegans measured on day 3 by microscopy; format: functional; details: 72 h
[2] = tested on: Caenorhabditis elegans; assay: Inhibition of hatch of eggs newly spawned by adult Caenorhabditis elegans measured on day 3; format: functional; details: 72 h
[3] = tested on: Caenorhabditis elegans; assay: Inhibition of hatch of eggs newly spawned by adult Caenorhabditis elegans at 17 uM measured on day 3; format: functional; details: 72 h
[4] = tested on: Escherichia coli; assay: Antimicrobial activity against Escherichia coli incubated at 37 degC for 24 hrs; format: functional, organism-based
[5] = tested on: Staphylococcus aureus; assay: Antimicrobial activity against Staphylococcus aureus incubated at 37 degC for 24 hrs; format: functional, organism-based
[6] = tested on: Aspergillus fumigatus; assay: Antimicrobial activity against Aspergillus fumigatus incubated at 28 degC for 24 hrs; format: functional, organism-based
[7] = tested on: Candida albicans; assay: Antimicrobial activity against Candida albicans incubated at 28 degC for 24 hrs; format: functional, organism-based
[8] = tested on: Pyricularia oryzae; assay: Antimicrobial activity against Magnaporthe oryzae incubated at 28 degC for 48 hrs; format: functional, organism-based
[9] = tested on: Plasmodium falciparum; assay: Antimalarial activity against Plasmodium falciparum K1 after 72 hrs by parasite LDH assay; format: functional, organism-based; details: K1, 72 h
[10] = tested on: HeLa; assay: Cytotoxic activity against human HeLa cells after 48 hrs by WST8 assay; format: functional, cell-based
[11] = Cytotoxic activity against human HL60 cells after 48 hrs by WST8 assay; format: functional, cell-based; details: HL-60, 48 h
[12] = target: T1, D-amino-acid oxidase (Caenorhabditis elegans, UniProt Q95XG9); assay: Inhibition of Caenorhabditis elegans DAO incubated for 10 mins
T1 sequence (Q95XG9 whole entry): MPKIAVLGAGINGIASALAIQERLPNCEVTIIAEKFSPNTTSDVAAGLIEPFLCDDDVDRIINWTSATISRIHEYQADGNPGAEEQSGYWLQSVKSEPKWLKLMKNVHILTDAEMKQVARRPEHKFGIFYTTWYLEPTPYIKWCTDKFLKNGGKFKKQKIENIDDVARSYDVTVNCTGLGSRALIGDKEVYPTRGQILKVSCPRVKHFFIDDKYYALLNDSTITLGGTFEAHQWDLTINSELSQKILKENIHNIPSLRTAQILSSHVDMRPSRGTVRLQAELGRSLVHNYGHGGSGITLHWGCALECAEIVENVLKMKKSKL

[13] = target: T2, D-aspartate oxidase 3 (Caenorhabditis elegans, UniProt O01739); assay: Inhibition of Caenorhabditis elegans DDO3 incubated for 10 mins
T2 sequence (O01739 whole entry): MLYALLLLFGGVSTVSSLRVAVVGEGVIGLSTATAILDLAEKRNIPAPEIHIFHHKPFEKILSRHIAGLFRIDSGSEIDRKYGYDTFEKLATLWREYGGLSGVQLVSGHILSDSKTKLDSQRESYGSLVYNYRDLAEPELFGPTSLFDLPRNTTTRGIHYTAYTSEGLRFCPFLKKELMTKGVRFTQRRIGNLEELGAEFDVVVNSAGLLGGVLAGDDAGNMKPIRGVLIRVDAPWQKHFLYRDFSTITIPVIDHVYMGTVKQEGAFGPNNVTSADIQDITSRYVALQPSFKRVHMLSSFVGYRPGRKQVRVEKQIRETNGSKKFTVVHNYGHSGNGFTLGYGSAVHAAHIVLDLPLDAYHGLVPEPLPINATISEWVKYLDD

With `Cc1ccc(-c2cnco2)cc1` the MIC [1] was greater than 100 µM and the MIC [2] was greater than 100 µM.

For `COc1ccc(-c2c[nH]cn2)cc1`, the MIC [1] was greater than 100 µM and the MIC [2] was greater than 100 µM.

Work on `COc1ccc(-c2cnco2)cc1` yielded an inhibition at 17 µM [3] of 100%, an MIC [1] of 34 µM (≈ 5.96 µg/mL) and an MIC [2] of 17 µM (≈ 2.98 µg/mL). For the same molecule, the EC50 [4] was greater than 100 µM, the EC50 [5] was greater than 100 µM and the EC50 [6] was greater than 100 µM. For the same molecule, the EC50 [7] was greater than 100 µM, the EC50 [8] was 4 µM and the EC50 [9] was greater than 100 µM. For the same molecule, the EC50 [10] was 30 µM, the EC50 [11] was greater than 100 µM and the EC50 [12] was greater than 100 µM. It also gave an EC50 [13] greater than 100 µM.

Work on `COc1cccc(-c2cnco2)c1` yielded an MIC [1] greater than 100 µM and an MIC [2] greater than 100 µM.

Work on `COc1ccccc1-c1cnco1` yielded an MIC [1] greater than 100 µM and an MIC [2] greater than 100 µM.

`COc1ccc(-c2cocn2)cc1` showed an MIC [1] greater than 100 µM and an MIC [2] greater than 100 µM.

With `c1ccc(-c2cnco2)cc1` the MIC [1] was greater than 100 µM and the MIC [2] was greater than 100 µM.

`Oc1ccc(-c2cnco2)cc1` gave an MIC [1] greater than 100 µM, an MIC [2] greater than 100 µM and an EC50 [4] greater than 100 µM. For the same molecule, the EC50 [5] was greater than 100 µM, the EC50 [6] was greater than 100 µM and the EC50 [7] was greater than 100 µM. For the same molecule, the EC50 [8] was 15 µM, the EC50 [9] was greater than 100 µM and the EC50 [10] was 51 µM. The EC50 [11] was greater than 100 µM, the EC50 [12] was greater than 100 µM and the EC50 [13] was greater than 100 µM.

Molecule `CC(=O)Oc1ccc(-c2cnco2)cc1` has an MIC [1] greater than 100 µM and an MIC [2] greater than 100 µM.

`CCc1ccc(-c2cnco2)cc1` showed an MIC [1] greater than 100 µM and an MIC [2] greater than 100 µM.

`COC(=O)c1ccc(-c2cnco2)cc1` gave an MIC [1] greater than 100 µM and an MIC [2] greater than 100 µM.

Work on `O=C(O)c1ccc(-c2cnco2)cc1` yielded an MIC [1] greater than 100 µM and an MIC [2] greater than 100 µM.

For `N#Cc1ccc(-c2cnco2)cc1`, the MIC [1] was greater than 100 µM and the MIC [2] was 100 µM (≈ 17 µg/mL).

Work on `CN(C)c1ccc(-c2cnco2)cc1` yielded an MIC [1] of 50 µM (≈ 9.41 µg/mL) and an MIC [2] greater than 100 µM.

For `COC(=O)c1cc(-c2cnco2)ccc1OC`, the MIC [1] was greater than 100 µM and the MIC [2] was greater than 100 µM.

`COc1ccc(-c2cnco2)cc1C(=O)O` gave an MIC [1] greater than 100 µM and an MIC [2] greater than 100 µM.

`COc1ccc(-c2ncco2)cc1` gave an MIC [1] of 100 µM (≈ 17.5 µg/mL) and an MIC [2] greater than 100 µM.

With `CCOC(=O)c1ccc(-c2ncc(-c3ccc(OC)cc3)o2)cc1` the MIC [1] was greater than 100 µM and the MIC [2] was greater than 100 µM.

Work on `COc1ccc(-c2cnc(-c3ccc(C(=O)O)cc3)o2)cc1` yielded an MIC [1] greater than 100 µM and an MIC [2] greater than 100 µM.

For `COc1ccc(-c2cncs2)cc1`, the MIC [1] was 50 µM (≈ 9.56 µg/mL) and the MIC [2] was greater than 100 µM.
